Test results published in ChEMBL document CHEMBL6109153, “Development of Membrane-Targeting Osthole Derivatives Containing Pyridinium Quaternary Ammonium Moieties with Potent Anti-Methicillin-Resistant Staphylococcus aureus Properties” (J Med Chem, 2025).
The source made the active and inactive calls. No cut-off for these calls is given here.

Tests used:
Staphylococcus aureus [1] = experiment: Antibacterial activity against Staphylococcus aureus ATCC 29213 incubated for 16 to 20 hrs by broth microdilution method; format: functional; details: time 16-20 hrs
Staphylococcus aureus [2] = experiment: Antibacterial activity against methicillin-resistant Staphylococcus aureus M16 incubated for 16 to 20 hrs by broth microdilution method; format: functional; details: time 16-20 hrs
Staphylococcus aureus [3] = experiment: Antibacterial activity against methicillin-resistant Staphylococcus aureus M17 incubated for 16 to 20 hrs by broth microdilution method; format: functional; details: time 16-20 hrs
Staphylococcus aureus [4] = experiment: Antibacterial activity against methicillin-resistant Staphylococcus aureus M23 incubated for 16 to 20 hrs by broth microdilution method; format: functional; details: time 16-20 hrs
Escherichia coli = experiment: Antibacterial activity against Escherichia coli ATCC 25922 incubated for 16 to 20 hrs by broth microdilution method; format: functional; details: time 16-20 hrs
[5] = Hemolytic activity against sheep erythrocytes; format: toxicity, cell-based, Ovis aries, Erythrocyte
Staphylococcus aureus [6] = experiment: Induction of bacterial eradication in methicillin-resistant Staphylococcus aureus M11 at 4 times MIC incubated for 8 hrs by time-kill assay; format: functional, organism-based
Staphylococcus aureus [7] = experiment: Induction of bacterial eradication in methicillin-resistant Staphylococcus aureus M11 at 8 times MIC incubated for 4 hrs by time-kill assay; format: functional, organism-based
Staphylococcus aureus [8] = experiment: Induction of resistance development in Staphylococcus aureus ATCC 29213 at 0.5 times MIC measured after 20 passages by broth microdilution method; format: functional, organism-based
[9] = Toxicity in KM mouse assessed as abnormality in heart at 30 mg/kg, sc by H and E staining based analysis; format: organism-based; details: in vivo
[10] = Toxicity in KM mouse assessed as adverse reactions at <=30 mg/kg, sc; format: organism-based; details: in vivo
[11] = Toxicity in KM mouse assessed as abnormality in spleen at 30 mg/kg, sc by H and E staining based analysis; format: organism-based; details: in vivo
[12] = Toxicity in BALB/c mouse assessed as mortality rate at 40 mg/kg, ip measured for 7 days; format: organism-based; details: in vivo, time 7 day, read-out: Activity
[13] = Toxicity in BALB/c mouse assessed as glossy fur at 5 to 40 mg/kg, ip measured for 7 days; format: organism-based; details: in vivo, 168 h, dose 5-40 mg/kg, time 7 day
[14] = Toxicity in BALB/c mouse assessed as normal appetite at 5 to 40 mg/kg, ip measured for 7 days; format: organism-based; details: in vivo, 168 h, dose 5-40 mg/kg, time 7 day
[15] = Toxicity in BALB/c mouse assessed as change in serum biochemical parameters at 30 mg/kg, ip measured for 7 days; format: organism-based; details: in vivo, 168 h, time 7 day
[16] = Toxicity in BALB/c mouse assessed as obvious damage in tissues of organs at 30 mg/kg, ip measured for 7 days by H and E staining based analysis; format: organism-based; details: in vivo, 168 h, time 7 day
Staphylococcus aureus [17] = experiment: Antibacterial activity against methicillin-resistant Staphylococcus aureus M11 infected in BALB/c mouse model of Sepsis assessed as reduction in abscess size on back at 4 mg/kg measured after 24 hrs; format: functional, organism-based
Staphylococcus aureus [18] = experiment: Antibacterial activity against methicillin-resistant Staphylococcus aureus M11 infected in BALB/c mouse model of Sepsis assessed as reduction in bacterial count in skin tissues at 4 mg/kg measured after 24 hrs relative to control; format: functional; design: scale not given: the % may be the effect or the level left
Staphylococcus aureus [19] = experiment: Antibacterial activity against methicillin-resistant Staphylococcus aureus M11 infected in BALB/c mouse model of Sepsis assessed as reduction in bacterial load in skin tissues at 4 mg/kg measured after 24 hrs; format: functional
Staphylococcus aureus [20] = experiment: Antibacterial activity against methicillin-resistant Staphylococcus aureus M11 infected in BALB/c mouse model of Sepsis assessed as reduction in bacterial load in skin tissues at 8 mg/kg measured after 24 hrs; format: functional
Staphylococcus aureus [21] = experiment: Antibacterial activity against methicillin-resistant Staphylococcus aureus M11 infected in BALB/c mouse model of Sepsis measured after 24 hrs; format: functional, organism-based; details: dose 4-8 mg/kg
Staphylococcus aureus [22] = experiment: Antibacterial activity against methicillin-resistant Staphylococcus aureus M11 infected in BALB/c mouse model of Sepsis assessed as reduction in TNF-alpha level measured after 24 hrs; format: functional, organism-based; details: dose 4-8 mg/kg
[23] = Toxicity in BALB/c mouse model of Sepsis infected with methicillin-resistant Staphylococcus aureus M11 assessed as pathological change in liver at 4 to 8 mg/kg measured after 24 hrs by H and E staining based analysis; format: organism-based; details: in vivo, dose 4-8 mg/kg
[24] = Toxicity in BALB/c mouse model of Sepsis infected with methicillin-resistant Staphylococcus aureus M11 assessed as pathological change in spleen at 4 to 8 mg/kg measured after 24 hrs by H and E staining based analysis; format: organism-based; details: in vivo, dose 4-8 mg/kg
[25] = Toxicity in BALB/c mouse model of Sepsis infected with methicillin-resistant Staphylococcus aureus M11 assessed as lesions in spleen at 4 to 8 mg/kg measured after 24 hrs by H and E staining based analysis; format: organism-based; details: in vivo, dose 4-8 mg/kg
Staphylococcus aureus [26] = experiment: Antibacterial activity against methicillin-resistant Staphylococcus aureus M11 infected in BALB/c mouse model of Sepsis assessed as reduction in serum IL-6 level administered intraperitoneally measured after 48 hrs; format: functional, organism-based; details: dose 10-20 mg/kg, route ip
Staphylococcus aureus [27] = experiment: Disruption of cell membrane in methicillin-resistant Staphylococcus aureus M11 assessed as increase in red fluorescence in nuclei at 4 ug/ml incubated for 4 hrs by DAPI/PI staining based analysis; format: functional, organism-based; details: dose 4.0 µg/ml
Staphylococcus aureus [28] = experiment: Induction of cell permeability in methicillin-resistant Staphylococcus aureus M11 assessed as increase in fluorescence intensity by SYTOX Green dye based analysis; format: functional, organism-based
Staphylococcus aureus [29] = experiment: Disruption of cell membrane in methicillin-resistant Staphylococcus aureus M11 assessed as fold increase in protein leakage at 4 ug/ml incubated for 4 hrs by micro-spectrophotometric analysis relative to control; format: functional; details: dose 4 µg/ml
Staphylococcus aureus [30] = experiment: Induction of ROS production in methicillin-resistant Staphylococcus aureus M11 incubated for 1 hr by DCFH-DA probe based analysis; format: functional, organism-based; details: dose <= 32.0 µg/ml
Staphylococcus aureus [31] = experiment: Induction of ROS production in methicillin-resistant Staphylococcus aureus M11 assessed as fold increase at 32 ug/ml incubated for 1 hr by DCFH-DA probe based analysis relative to control; format: functional; details: dose 32 µg/ml
Staphylococcus aureus [32] = experiment: Antibacterial activity against methicillin-resistant Staphylococcus aureus M11 up to 128 ug/ml in presence of 32 ug/ml peptidoglycan incubated for 16 to 18 hrs; format: functional; details: dose <= 128 µg/ml, time 16-18 hrs
Staphylococcus aureus [33] = experiment: Antibacterial activity against methicillin-resistant Staphylococcus aureus M11 up to 128 ug/ml in presence of 128 ug/ml peptidoglycan incubated for 16 to 18 hrs; format: functional; details: dose <= 128 µg/ml, time 16-18 hrs
[34] = Binding affinity to phosphatidylglycerol assessed as change in enthalpy by ITC analysis
[35] = Toxicity in KM mouse assessed as adverse reactions at <=20 mg/kg, sc; format: organism-based; details: in vivo
[36] = Toxicity in KM mouse assessed as abnormality in heart at 20 mg/kg, sc by H and E staining based analysis; format: organism-based; details: in vivo
[37] = Toxicity in KM mouse assessed as abnormality in liver at 20 mg/kg, sc by H and E staining based analysis; format: organism-based; details: in vivo
[38] = Toxicity in KM mouse assessed as abnormality in lung at 20 mg/kg, sc by H and E staining based analysis; format: organism-based; details: in vivo
[39] = Toxicity in BALB/c mouse assessed as mortality rate at 20 mg/kg, ip measured for 7 days; format: organism-based; details: in vivo, time 7 day, read-out: Activity

Row | Compound | MIC (Staphylococcus aureus [1]) [µg/mL] | MIC (Staphylococcus aureus [2]) [µg/mL] | MIC (Staphylococcus aureus [3]) [µg/mL] | MIC (Staphylococcus aureus [4]) [µg/mL] | MIC (Escherichia coli) [µg/mL] | HC50 [5] [µg/mL] | Activity (Staphylococcus aureus [6]) | Activity (Staphylococcus aureus [7]) | Activity (Staphylococcus aureus [8]) | Activity [13] | Activity [14] | Activity (Staphylococcus aureus [17]) | Activity (Staphylococcus aureus [18]) [%] | Activity (Staphylococcus aureus [19]) [log10CFU/g] | Activity (Staphylococcus aureus [20]) [log10CFU/g] | Activity (Staphylococcus aureus [21]) | Activity (Staphylococcus aureus [22]) | Activity [23] | Activity [24] | Activity [25] | also measured
1 | CC(C)=CCc1c(OCCCCSc2cc[n+](CC(=O)N(CC(C)C)CC(C)C)cc2)ccc2ccc(=O)oc12.[Br-] | 0.5 | 0.5 | 0.5 | 0.5 | > 128 | > 160 | Active | Active | inactive | Non-toxic | Non-toxic | Active | 98.886 | 1.948 | 4.252 | Dose-dependent-effect | Dose-dependent-effect; Compound Has Slightly Greater Efficacy Than Vancomycin | Non-toxic | Non-toxic | Non-toxic | Activity [9]: Non-toxic; Activity [10]: Non-toxic; Activity [11]: Non-toxic; mortality at 168 h [12]: 83.3%; Activity [15]: Non-toxic; Activity [16]: Non-toxic; Activity (Staphylococcus aureus [26]): Dose-dependent-effect; Activity (Staphylococcus aureus [27]): Active; Activity (Staphylococcus aureus [28]): Dose-dependent-effect; fold change (FC) (Staphylococcus aureus [29]): ~4; Activity (Staphylococcus aureus [30]): Dose-dependent-effect; fold change (FC) (Staphylococcus aureus [31]): 2; MIC (Staphylococcus aureus [32]): 1 µg/mL; MIC (Staphylococcus aureus [33]): 16 µg/mL; deltaH [34]: -2.72 kcal/mol
2 | CCCCCNC(=O)C[n+]1ccc(SCCCCCOc2ccc3ccc(=O)oc3c2CC=C(C)C)cc1.[Br-] | 1 | 0.5 | 0.5 | 0.5 | > 128 | > 160 | Active | Active | inactive | Non-toxic | Non-toxic | Active | 98.702 | 1.882 | 3.828 | Dose-dependent-effect | Dose-dependent-effect; Compound Has Slightly Greater Efficacy Than Vancomycin | Non-toxic | Non-toxic | Non-toxic | Activity [35]: Non-toxic; Activity [36]: Non-toxic; Activity [37]: Non-toxic; Activity [38]: Non-toxic; mortality at 168 h [39]: 83.3%; Activity (Staphylococcus aureus [27]): Active; Activity (Staphylococcus aureus [28]): Dose-dependent-effect; fold change (FC) (Staphylococcus aureus [29]): ~4; Activity (Staphylococcus aureus [30]): Dose-dependent-effect; fold change (FC) (Staphylococcus aureus [31]): 1.8; MIC (Staphylococcus aureus [32]): 1 µg/mL; MIC (Staphylococcus aureus [33]): 16 µg/mL
